Measurements: patent publication US20090018118A1, “HETEROCYCLIC COMPOUNDS” (priority 2005, published 2009)
Counter-ions that a name gives are not always drawn. Like-named read-outs stand apart in the source and are kept apart here.

System: cholesterol biosynthesis in HepG2 cells
Test: Metabolic labeling of HepG2 cells with [3H]acetate; radio-HPLC sterol profile (inhibition of cholesterol biosynthesis)
Format: cell-based, human
Details: HepG2; for activity at 10 µM: Homo sapiens, 24 h, Table I, sterol level normalized to normal medium (1.00), mean of 4 experiments; for activity at 10 µM / FF-MAS / cholesterol / desmosterol / lanosterol / lathosterol / zymosterol+7-dehydrocholesterol: 10 μM compound; for FF-MAS / cholesterol / desmosterol / lanosterol / lathosterol / zymosterol+7-dehydrocholesterol: Table II (arranged by sterol profile), normalized to normal medium (1.00); for all sterol levels (in words): relative to normal medium (unity)
Description: In accordance with the aims of the invention, the effect of the novel compounds on inhibition of cholesterol biosynthesis is assessed. An ex vivo method of metabolic labeling of immortal human hepatocytes is employed. The radioactively labeled early precursor of cholesterol [3H]acetate is added to cells with or without addition of an active new compound.
An ex vivo method of metabolic labeling of immortal human hepatocytes is employed. The radioactively labeled early precursor of cholesterol [3H]acetate is added to cells with or without addition of an active compound.
Cell culture incubation with potential inhibitors of cholesterol biosynthesis and statins Human hepatoma cell line (HepG2-ATCC No. HB-8065) is split in the recommended ratio (1:2-3) into 75 cm^2 cell flasks using two flasks per experimental condition. Cells are incubated at 37° C. with 5% CO2 in Dulbeco's modified Eagle medium (DMEM high (Sigma)) containing 5% calf serum (Sigma) and 1% L-glutamine (Sigma). After 24-hours-culturing in the growth medium, the medium is replaced with the one supplemented with 10 μM concentration of a LK compound, potential inhibitor of cholesterol biosynthesis. 10 μM solution of atorvastatin, inhibitor of HMG-CoA reductase, serves as a positive control.
After 24 hours the growth medium is changed and [^3H]acetate (NEN™ Life Science Products) added in a concentration of 40 μCi per ml of the medium (400 μCi per flask). After 4 hours cells are harvested using 2 ml of trypsin (Sigma) and the cell pellet is resuspended in 1 ml of distilled water. Cells are homogenized using the freeze and thaw method. From cell homogenate sterols are extracted and protein concentration determined using the Bio-Rad reagent.
Homogenates are transferred into 4 ml glass vial and sterols are extracted in 3 ml of extraction solution (75% n-heptane: 25% isopropanol (vol./vol.)) with ergosterol as an internal standard. For better extraction 100 μl of 0.3M NaH2PO4 (pH=1.0) is added. Closed vials are vigorously shaken (1800 rpm) for 2 hours. After extraction procedure vials are centrifuged (2000 g, 10 min) and the organic phase is transferred to fresh conical glass tubes. Extraction procedure is repeated using 1 ml of extraction solution for 15 min. Organic phases are pooled. Primary extracts are dried in vacuum centrifuge, redissolved in 3 ml of n-heptane, and incubated for 10 min at room temperature with mild shaking. After centrifugation (10 min, 2000 g) extracts are transferred into fresh glass tubes and stored in dark and cold.
The organic phase is dried, reconstituted in mobile phase for reversed phase HPLC separation and loaded onto a-HPLC column, Prism-RPN, 5 μm, 250×4,6 mm running in 100% acetonitrile at 1.00 ml/min at 40° C. temperature. Scintillation liquid is added after UV detection at 30 ml/h, at room temperature, to evaluate tritium labeled sterols on a radio detector.
Sterols are determined by comparing the eluted peaks with runs of commercial standards of lanosterol, ergosterol, desmosterol, zymosterol, 7-dehydrocholesterol, lathosterol and cholesterol or laboratory standards (FF-MAS-4,4-Dimethylcholesta-8(9),14,24-triene-3β-ol- and T-MAS-4,4-Dimethylcholesta8(9),24,diene-3,6-ol, Laboratory of Reproductive Biology, The Juliane Marie Center for Children, Women and Reproduction, University Hospital of Copenhagen, DK-2100 Copenhagen, Denmark). Results were normalized on ergosterol quantity and protein concentration. Results are presented as a mean from 4 separated experiments.
The influence of a 10 μM solution of novel LK-substances on cholesterol biosynthesis in the assay on HepG2 cells is presented in Table I. Compounds are arranged according to the building blocks, three of them are 2-pyridineethanols, 2-pyridineethylpiperazines and pyridinemethylpiperazines.
Normal medium pertains to cell cultures without a compound of the invention. Its sterol levels were used for normalization. 10 μM solution of atorvastatin serves as a positive control.

[1] = read-out: zymosterol+7-dehydrocholesterol

Row | SMILES | activity at 10 µM (read-out: FF-MAS) [%] | activity at 10 µM (read-out: cholesterol) [%] | activity at 10 µM (read-out: desmosterol) [%] | activity at 10 µM (read-out: lanosterol) [%] | activity at 10 µM (read-out: lathosterol) [%] | activity at 10 µM [1] [%] | FF-MAS | cholesterol | desmosterol | lanosterol | lathosterol | zymosterol+7-dehydrocholesterol | sterol profile (in words) (10 μM, preferred profile: lowered cholesterol, no accumulation of lanosterol and post-lanosterol intermediates) | FF-MAS accumulation (in words) (10 μM) | all sterol levels (in words) (10 μM)
1 | OC(CN1CCN(CCc2ccccc2)CC1)c1cccnc1 (stereo not shown) [LK-980, 2-(4-Phenethylpiperazine-1-yl)-1-(pyridine3-yl)-1-ethanol trihydrobromide] | 254 | 5 | 0 | 96 | 49 | 102 | 2.54 | 0.05 | 0.00 | 0.96 | 0.49 | 1.02 |  |  | 
2 | c1ccc(CCN2CCN(CCc3cccnc3)CC2)cc1 [LK-9100, 1-Phenethyl-4-(2-(pyridine-3-yl)ethyl)piperazine trihydrobromide] | 241 | 0 | 0 | 83 | 30 | 74 | 2.41 | 0.00 | 0.00 | 0.83 | 0.30 | 0.74 |  |  | 
3 | O=C(Cc1cccnc1)N1CCN(CCc2ccccc2)CC1 [LK-9101B, 1-(4-Phenethylpiperazin-1-yl)-2-(pyridine-3-yl)ethanone] | 136 | 12 | 10 | 94 | 54 | 155 | 1.36 | 0.12 | 0.10 | 0.94 | 0.54 | 1.55 |  |  | 
4 | COc1ccc(CN2CCN(CCc3ccccc3)CC2)cn1 [LK-9106, 1-((6-Methoxypyridin-3-yl)methyl)-4-phenethylpiperazine trihydrobromide] | 200 | 0 | 0 | 52 | 31 | 46 | 2.00 | 0.00 | 0.00 | 0.52 | 0.31 | 0.46 |  |  | 
5 | FC(F)(F)c1ccc(CN2CCN(CCc3ccccc3)CC2)cn1 [LK-9107, 1-Phenethyl-4-((6(trifluoromethyl)pyridine-3-yl)methyl)piperazine trihydrobromide] | 129 | 0 | 0 | 36 | 11 | 20 | 1.29 | 0.00 | 0.00 | 0.36 | 0.11 | 0.20 | meets these criteria in considerable extent |  | 
6 | c1ccc(CCN2CCN(Cc3cccnc3)CC2)cc1 [LK-9108, 1-Phenethyl-4-(pyridine-3-ylmethyl)piperazine trihydrobromide] | 310 | 0 | 0 | 110 | 74 | 140 | 3.10 | 0.00 | 0.00 | 1.10 | 0.74 | 1.40 |  |  | 
7 | c1ccc(CCN2CCN(Cc3ccc(N4CCOCC4)nc3)CC2)cc1 [LK-9109B, 4-(5-((4-Phenethylpiperazin-1-yl)methyl)pyridine-2-yl)morpholine] | 650 | 0 | 29 | 95 | 9 | 100 | 6.50 | 0.00 | 0.29 | 0.95 | 0.09 | 1.00 |  | notably accumulate FF-MAS | 
8 | OC(CN1CCN(CCc2ccccc2)CC1)c1ccncc1 (stereo not shown) [LK-9110B, 2-(4-Phenethylpiperazine-1-yl)-1-(pyridine-4-yl)ethanol] | 374 | 0 | 17 | 96 | 78 | 137 | 3.74 | 0.00 | 0.17 | 0.96 | 0.78 | 1.37 |  |  | 
9 | FC(F)(F)c1cnc(N2CCCN(CCc3ccccc3)CC2)c(Cl)c1 [LK-9115, 1-(3-Chloro-5-(trifluoromethyl)pyridine-2-yl)-4-phenethyl-1,4-diazepane trihydrobromide] | 442 | 0 | 0 | 84 | 21 | 91 | 4.42 | 0.00 | 0.00 | 0.84 | 0.21 | 0.91 |  |  | 
10 | c1ccc(CCN2CCN(CCc3ccncc3)CC2)cc1 [LK-9118B, 1-Phenethyl-4-(2-(pyridine-4-yl)ethyl)piperazine] | 350 | 0 | 47 | 146 | 23 | 90 | 3.50 | 0.00 | 0.47 | 1.46 | 0.23 | 0.90 |  |  | 
11 | Fc1ccc(CCN2CCN(CCc3ccncc3)CC2)cc1F [LK-9131, 1-(3,4-di-Fluorophenethyl)-4-(2-(pyridin-4-yl)ethyl)piperazine trihydrobromide] | 72 | 0 | 1 | 69 | 5 | 9 | 0.72 | 0.00 | 0.01 | 0.69 | 0.05 | 0.09 |  |  | reduce all sterol levels below unity
12 | Clc1ccc(CCN2CCN(CCc3ccncc3)CC2)cc1Cl [LK-9135, 1-(3,4-Dichlorophenethyl)-4-(2-(pyridin-4-yl)ethyl)piperazine trihydrobromide] | 27 | 0 | 0 | 43 | 0 | 2 | 0.27 | 0.00 | 0.00 | 0.43 | 0.00 | 0.02 |  |  | reduce all sterol levels below unity
